Results reported in ChEMBL document CHEMBL3351248, “The discovery of potent, selective, and reversible inhibitors of the house dust mite peptidase allergen Der p 1: an innovative approach to the treatment of allergic asthma” (J Med Chem, 2014).
The source made the active and inactive calls. No cut-off for these calls is given here.

Assays:
[1] = Metabolic stability in rat NR8383 cells after 2 hrs by LC-MS-MS analysis; assay type: ADME, cell-based; conditions: nr8383, 2 h
[2] = Metabolic stability in rat L2 cells after 2 hrs by LC-MS-MS analysis; assay type: ADME, cell-based; conditions: l2, 2 h
Rattus norvegicus = experiment: Inhibition of house dust mites allergan-induced eosinophil recruitment in Brown Norway rat model at 25 to 35 ug/kg administered via intratracheal aerosolization 2 hrs prior to allergan challenge measured after 48 hrs by bronchoalveolar lavage method; assay type: functional, organism-based; conditions: Lung

Compound	Stability [1]	Stability [2]	inhibition (Rattus norvegicus)
CC(C)[C@H](NC(=O)[C@H](C)NC(=O)[C@@H](NC(=O)c1ccncc1)C(C)(C)C)C(=O)C(=O)NC1CCCCC1	Stable	Stable	Active
CC(C)[C@H](NC(=O)[C@H](C)NC(=O)[C@H](Cc1ccccc1)NC(=O)c1ccccc1)C(=O)C(=O)NCC(=O)N1CC[N+](C)(C)CC1.O=C[O-]	Stable	Stable	
CC(C)[C@H](NC(=O)[C@H](C)NC(=O)[C@H](Cc1ccccc1)NC(=O)c1ccccc1)C(=O)C(=O)NCC(=O)N1CCOCC1	Stable	Stable	Active
CC(C)[C@H](NC(=O)[C@H](C)NC(=O)[C@@H](NC(=O)c1ccnc2ccccc12)C(C)(C)C)C(=O)C(=O)NCc1ccccc1	Stable	Stable	Active

Now from value to compound, other results behind:

Stability [1]	Stability [2]	Compound	inhibition (Rattus norvegicus)
Stable	Stable	CC(C)[C@H](NC(=O)[C@H](C)NC(=O)[C@H](Cc1ccccc1)NC(=O)c1cccc2ccccc12)C(=O)C(=O)NCC(=O)N1CCN(C)CC1	Active
Stable	Stable	CC(C)[C@H](NC(=O)[C@H](C)NC(=O)[C@H](Cc1ccccc1)NC(=O)c1ccccc1)C(=O)C(=O)NCC(=O)N1CCN(C)CC1	Active
Stable	Stable	CC(C)[C@H](NC(=O)[C@H](C)NC(=O)[C@@H](NC(=O)c1ccccc1)C(C)(C)C)C(=O)C(=O)NCc1ccccc1	
Stable	Stable	CC(C)[C@H](NC(=O)[C@H](C)NC(=O)[C@@H](NC(=O)C1CC[N+](C)(C)CC1)C(C)(C)C)C(=O)C(=O)NCc1ccccc1.O=C[O-]	
